Measurements as given in patent US7109174B2, “Anticonvulsant derivatives useful for preventing the development of type II diabetes mellitus and syndrome X” (Ortho-McNeil Pharmaceutical, Inc., priority 2000, dated 2006).

How the values were obtained:
[1] = tested on: db/db mice (Homozygous Diabetic Mice); assay: Plasma glucose, triglycerides and body weight in female diabetic db/db mice, 11 days oral dosage; assay type: in vivo; conditions: for Plasma Glucose % Change / Plasma Triglycerides % Change / Change in Body Weight / Plasma Triglycerides Plasma Conc. / Plasma Glucose Plasma Conc.: 11 days; for Plasma Glucose % Change / Plasma Triglycerides % Change: versus vehicle; for Change in Body Weight / Plasma Triglycerides Plasma Conc. / Plasma Glucose Plasma Conc.: ± SEM
Experimental: (§1) Six to seven week old female C57 BLK SIJ-m^+/^+ Lepr^db mice (db/db) and heterozygous littermates were purchased from The Jackson Laboratory (Bar Harbor, Me.). Upon arrival the mice were quarantined for 5 days and housed in pairs in shoe-box cages containing ALPHA-dri® bedding (Shepherd Speciality Papers, Inc., Kalamazoo, Mich.). The mice were maintained at an ambient temperature of 21 to 23° C. on a 12 hour-12 hour light-dark schedule and given access to water and food ad libitum. The diet was comprised of NIH (National Institutes of Health) Rat and Mouse/Auto 6F Reduced Fat Diet No. 5K52 (PMI Nutrition International Inc., Brentwood, Mo.).
(§2) The vehicle, used as a reference and for test compounds, was 0.5% methylcellulose dissolved in water. The compounds were either fully dissolved or uniformly suspended in the vehicle when administered to the mice.
(§3) The db/db mice were randomly separated into five groups of eight, as were the heterozygous littermates. The groups were as follows: one vehicle control group and four groups that each received one of four doses of topiramate (TPM) (10, 30, 100, or 300 mg/kg, respectively). Topiramate or vehicle was administered orally by gavage once a day during the 8th hour of the light portion of the light-dark cycle.
(§4) Between 18 and 24 hours after the last dose was administered, the mice were anesthetized with CO2/O2 (70:30) and blood from the retro-orbital sinus puncture was collected into 2 mL heparinized snap-top polypropylene tubes, then placed in ice.
(§5) Plasma was separated from blood cells by centrifugation (15 minutes at 1600 g). For samples not assayed immediately, the plasma was transferred into 96-well plates and frozen at −70° C.
(§6) Glucose and triglycerides were assayed using standard procedures for blood clinical laboratories. Specifically, the samples were analyzed using an automated Hitachi 717 autoanalyzer (Boehringer Mannheim/Hitachi 717 Autoanalyzer, Boehringer Mannheim Laboratory Systems Division, Indianapolis, Ind.). A statistical analysis of data for the drug-treated groups compared to data for the vehicle group was performed using the one-way analysis of variance (ANOVA) with Dunnett's Multiple Comparisons test.
(§7) Following the procedure described above, the effect of topiramate on plasma glucose and triglyceride levels was determined for female diabetic db/db mice and littermates, following 11 days oral dosage, with results as listed in Table 3 and 4. Body weights are in Table 5. The abbreviation N represents the number of animals per study group.

[2] = tested on: Heterozygous Non-Diabetic Mice; assay: Plasma glucose, triglycerides and body weight in heterozygous non-diabetic littermates, 11 days oral dosage; assay type: in vivo; conditions: for Plasma Glucose % Change / Plasma Triglycerides % Change: versus vehicle; for Change in Body Weight / Plasma Glucose Plasma Conc. / Plasma Triglycerides Plasma Conc.: ± SEM
Experimental: as §1, §2, §3, §4, §5, §6, §7

[3] = tested on: rodent models of epilepsy; conditions: several rodent models of epilepsy; cited from earlier work
[4] = tested on: animal model of kindled epilepsy; conditions: cited from earlier work
[5] = 100 mg/kg oral once a day, P < 0.01
[6] = 300 mg/kg oral once a day, P < 0.01

Compound: CC1(C)O[C@@H]2[C@@H](CO[C@@]3(COS(N)(=O)=O)OC(C)(C)O[C@@H]23)O1 [Topiramate, 2,3:4,5-bis-O-(1-methylethylidene)-β-D-fructopyranose sulfamate]
- Plasma Glucose % Change ([1]; 10 mg/kg oral once a day): −27.4%
- Plasma Triglycerides % Change ([1]; 10 mg/kg oral once a day): −18.9%
- Change in Body Weight ([1]; 10 mg/kg oral once a day): 1.7 ± 0.9 g
- Plasma Triglycerides Plasma Conc. ([1]; 10 mg/kg oral once a day): 277 ± 30 mg/dL
- Plasma Glucose Plasma Conc. ([1]; 10 mg/kg oral once a day, P < 0.05): 382 ± 46 mg/dL
- decrease in blood glucose vs. control ([1]; 10 mg/kg/day, P<0.05): 27%
- Plasma Glucose % Change ([1]; 30 mg/kg oral once a day): −34.6%
- Plasma Triglycerides % Change ([1]; 30 mg/kg oral once a day): −11.2%
- Change in Body Weight ([1]; 30 mg/kg oral once a day): 2.6 ± 1.0 g
- Plasma Triglycerides Plasma Conc. ([1]; 30 mg/kg oral once a day): 303 ± 29 mg/dL
- Plasma Glucose Plasma Conc. ([1]; 30 mg/kg oral once a day, P < 0.01): 344 ± 31 mg/dL
- decrease in blood glucose vs. control ([1]; 30 mg/kg/day, P<0.01): 35%
- Plasma Glucose % Change ([1]; 100 mg/kg oral once a day): −36.6%
- Plasma Triglycerides % Change ([1]; 100 mg/kg oral once a day): −33.7%
- Change in Body Weight ([1]; 100 mg/kg oral once a day): 1.5 ± 0.7 g
- Plasma Glucose Plasma Conc. [1, 5]: 333 ± 42 mg/dL
- Plasma Triglycerides Plasma Conc. [1, 5]: 227 ± 15 mg/dL
- decrease in blood glucose vs. control ([1]; 100 mg/kg/day, P<0.01): 37%
- Plasma Glucose % Change ([1]; 300 mg/kg oral once a day): −60.5%
- Plasma Triglycerides % Change ([1]; 300 mg/kg oral once a day): −41.7%
- Change in Body Weight ([1]; 300 mg/kg oral once a day): 0.7 ± 2.4 g
- Plasma Glucose Plasma Conc. [1, 6]: 207 ± 41 mg/dL
- Plasma Triglycerides Plasma Conc. [1, 6]: 199 ± 16 mg/dL
- decrease in blood glucose vs. control ([1]; 300 mg/kg/day, P<0.01): 61%
- decrease in plasma triglyceride levels versus diabetic controls ([1]; 100 and 300 mg/kd/day, P<0.01): up to 42%
- Plasma Glucose % Change ([2]; 10 mg/kg oral once a day): −1.2%
- Plasma Triglycerides % Change ([2]; 10 mg/kg oral once a day): −0.3%
- Change in Body Weight ([2]; 10 mg/kg oral once a day): 0.5 ± 0.2 g
- Plasma Glucose Plasma Conc. ([2]; 10 mg/kg oral once a day): 145 ± 6 mg/dL
- Plasma Triglycerides Plasma Conc. ([2]; 10 mg/kg oral once a day): 141 ± 13 mg/dL
- Plasma Glucose % Change ([2]; 30 mg/kg oral once a day): +3.8%
- Plasma Triglycerides % Change ([2]; 30 mg/kg oral once a day): −17.5%
- Change in Body Weight ([2]; 30 mg/kg oral once a day): 0.0 ± 0.3 g
- Plasma Glucose Plasma Conc. ([2]; 30 mg/kg oral once a day): 152 ± 6 mg/dL
- Plasma Triglycerides Plasma Conc. ([2]; 30 mg/kg oral once a day): 116 ± 6 mg/dL
- Plasma Glucose % Change ([2]; 100 mg/kg oral once a day): +0.8%
- Plasma Triglycerides % Change ([2]; 100 mg/kg oral once a day): −34.8%
- Change in Body Weight ([2]; 100 mg/kg oral once a day): 0.2 ± 0.2 g
- Plasma Glucose Plasma Conc. ([2]; 100 mg/kg oral once a day): 148 ± 7 mg/dL
- Plasma Triglycerides Plasma Conc. [2, 5]: 92 ± 6 mg/dL
- Plasma Glucose % Change ([2]; 300 mg/kg oral once a day): −17.2%
- Plasma Triglycerides % Change ([2]; 300 mg/kg oral once a day): −1.8%
- Plasma Triglycerides Plasma Conc. ([2]; 300 mg/kg oral once a day): 138 ± 15 mg/dL
- Plasma Glucose Plasma Conc. [2, 6]: 121 ± 7 mg/dL
- Change in Body Weight ([2]; 300 mg/kg oral once a day, P < 0.05): -2.2 ± 0.5 g
- seizure block [3]: effectively block seizures
- seizure block [4]: effectively block seizures
